Laboratory results as given in patent publication US4820717A, “Antimicrobial aromatic derivatives substituted by an (omega amino) alkanol group and compositions containing them” (priority 1985, dated 1989).
In brackets after ≈: the same amount, converted by molar mass.

Assays:
[1] = Acute toxicity by oral route in mice; details: mouse, in vivo, per os, male CD1 mice, 14 days observation
Procedure: Acute toxicity was tested by oral route in mice. This test was carried out with male mice of CD1 strain, obtained from the Charles Reever breeding farm. Each batch was composed of 5 animals of body weight varying between 24 and 30 g kept in the same cage. The animals were kept fasting for 6 hours before the treatment. For every test, the product, placed in suspension in a 10% solution of gum arabic, was administered by forcible feeding with an oesophageal probe. Food was then served to the animals 4 hours after the forcible feeding and the animals were kept under observation for a period of 14 days after the administration. During that period, the death rate is recorded for each batch of animals used in the experiment and, wherever possible, the LD50 is determined by the method of J. T. Litchfield and F. Wilcoxon, J. Pharmacol. 1949, 95, 99-113.
The results are given in mg of substance tested per kg of body weight. They are compiled in Table III below.

guinea-pig = test: Phototoxic or photoallergic effect on the guinea-pig; format: in vivo
Description: The products according to the invention have also been tested for a phototoxic or photoallergic effect on the guina-pig. The technique used is that of J. Unkovic, G. Mazue and J. Girard, in "Sciences et Techniques de l'Animal de Laboratoire", 1983, 8 (3), 149-160. This is an adaptation of the techniques described by L. C. Harber et al., Arch. Dermatol., 1967, 96, 646-656 and L. J. Vinson et al., Arch. Dermatol., 1966, 17, 123-130.

[2] = system: Escherichia Coli CNCM 54125; test: Bactericidal activity (MBC), strain 1; format: cell-based; details: 20 min, strain 1, 20 minutes of contact, read-out: Minimum bactericidal concentration (MBC)
Description: (§1) The bactericidal activity of the products according to the invention has been analyzed on various strains by the method described hereafter:
(§2) A bacterial inoculum is placed in contact with different dilutions of the product to be tested, and this for a limited period of time. At the end of contact, an aliquot part of the mixture bacterial suspension/product is deposited on the surface of an agar culture medium containing an agent neutralizing the antibacterial activity of the product. The bactericidal concentration retained is the smallest concentration of the product from which bacteria stop growing. Said concentration is expressed in μg/ml.
(§3) The bacterial strains selected for the analysis are:
1--Escherichia Coli CNCM 54125;
(§4) The second strain is supported on a Worgel Fergusson medium, the other strains being supported on Tryptic Soy Agar-Difco (TSA) commercialized by Difco.
(§5) After a 24-hour culture period at 37° C., the microbial growth is collected by means of glass beads and of 10 ml of diluent containing 1 g of tryptone and 8.5 g of sodium chloride in 1000 ml of distilled water. The formed suspension is stirred and the percentage of light transmission at 620 nm is measured with a spectrophotometer:
(§6) The bacterial inoculum corresponds to a 1/20th dilution of this bacterial suspension.
(§7) Plates equipped with cupules receive different dilutions of the product to be analyzed. These dilutions are placed in contact with the different bacterial suspensions by means of a multiple-center inoculator. After 20 minutes of contact, aliquot parts are transferred by means of said inoculator on the surface of an agar medium (TSA) in Petri dishes, containing an activity-neutralizing agent, namely 20 g of lubrol W, 25 g of Tween 80 and 2.5 g of sodium thiosulfate in 1000 ml of TSA (Difco). The efficiency of the neutralizing agent is controlled for each product to be analyzed by depositing on the surface of the culture medium an aliquot part of the dilution of the product to be analyzed. After drying, the corresponding inoculum is deposited in the same place. An inoculum control is performed on an agar medium with or without neutralizing agent. Readings are taken after 48 hours of incubation at 37° C.

[3] = system: Staphylococcus aureus CNCM 53154; test: Bactericidal activity (MBC), strain 5; format: cell-based; details: CNCM53154, 20 min, strain 5, 20 minutes of contact, read-out: Minimum bactericidal concentration (MBC)
Description: as §1, §2, §3
5--Staphylococcus aureus CNCM 53154.
as §4, §5, §6, §7

[4] = system: Encapsulated klebsiella pneumoniae R030; test: Bactericidal activity (MBC), strain 2; format: cell-based; details: 20 min, strain 2, 20 minutes of contact, read-out: Minimum bactericidal concentration (MBC)
Description: as §1, §2, §3
2--Encapsulated klebsiella pneumoniae R030;
as §4, §5, §6, §7

guinea-pig skin [5] = test: Skin sensitization test in the guinea-pig; format: in vivo; details: one week treatment after two weeks' rest
Procedure: The tolerance of the products according to the invention was tested in the guinea-pig. The animals are shorn on both sides of the middle line of the back, the shearing being kept up every other day. Batches of 6 animals receive, on the shorn part, 0.2 ml of an aqueous or alcoholic solution of the product according to the invention. When these products are in alcoholic solution, one control batch of animals receives the alcohol on one side. The skin sensitization test is performed on the same animals after two weeks' rest. The treatment lasts one week, it is identical to the preceding one. The evaluation is based on the same criteria and on the same scale as used to determine the local tolerance.

[6] = system: Streptococcus faecalis CNCM 5855; test: Bactericidal activity (MBC), strain 4; format: cell-based; details: Enterococcus faecalis, CNCM5855, 20 min; strain 4, 20 minutes of contact; read-out: Minimum bactericidal concentration (MBC)
Description: as §1, §2, §3
4--Streptococcus faecalis CNCM 5855;
as §4, §5, §6, §7

[7] = system: Pseudomonas aeruginosa CNCM A22; test: Bactericidal activity (MBC), strain 3; format: cell-based; details: CNCMA22, 20 min, strain 3, 20 minutes of contact, read-out: Minimum bactericidal concentration (MBC)
Description: as §1, §2, §3
3--Pseudomonas aeruginosa CNCM A22;
as §4, §5, §6, §7

guinea-pig skin [8] = test: Preliminary skin tolerance in the guinea-pig; format: in vivo; details: 0.2 ml on shorn skin once a day, six days out of seven, three weeks
Procedure: The tolerance of the products according to the invention was tested in the guinea-pig. The animals are shorn on both sides of the middle line of the back, the shearing being kept up every other day. Batches of 6 animals receive, on the shorn part, 0.2 ml of an aqueous or alcoholic solution of the product according to the invention. When these products are in alcoholic solution, one control batch of animals receives the alcohol on one side.
To study the preliminary skin tolerance, the treatment is applied once a day, six days out of seven, for three weeks. The observations made of the skin are concerned with the presence of erythema, skin eruptions or hyperkeratosis, the intensity of which is graduated according to a preset scale.

Candida parakruzei 3918 = test: Antifungal activity (MFC), strain 3; format: cell-based; details: 20 min; yeast strain 3; read-out: Minimum fongicidal concentration (MFC)
Description: as §2, §7
(§8) The antifungal activity of the products according to the invention was also determined with the aforedescribed method.
(§9) The fungal strains selected for the analysis are:
3--Candida parakruzei 3918;
(§10) These strains are supported on a Sabouraud Dextrose agar medium commercialized by Difco; the technique used is the same as that used in the analysis of the antibacterial activity. After 48 hours of culture at 37° C., the microbial growth is collected with glass beads and 5 ml of diluent containing 1 g of tryptone and 8.5 g of sodium chloride in 1000 ml of distilled water; 5 ml of the diluent are then added. […] A 1/100th dilution of this suspension, observed between slides under a microscope 40-lens, should show 10 cells per frame, this corresponding to 1,000,000 yeasts per ml.

Candida tropicalis 3834 = test: Antifungal activity (MFC), strain 2; format: cell-based; details: 20 min; yeast strain 2; read-out: Minimum fongicidal concentration (MFC)
Description: as §2, §7, §8, §9
2--Candida tropicalis 3834;
as §10

[9] = system: Torulopsis glabrata 072023; test: Antifungal activity (MFC), strain 4; format: cell-based; details: 20 min; yeast strain 4; read-out: Minimum fongicidal concentration (MFC)
Description: as §2, §7, §8, §9, §10

[10] = system: Candida albicans CNCM 1180; test: Antifungal activity (MFC), strain 1; format: cell-based; details: 20 min; yeast strain 1; read-out: Minimum fongicidal concentration (MFC)
Description: as §2, §7, §8, §9
1--Candida albicans CNCM 1180;
as §10

lymphoma cells of mice = details: cited from earlier work

SMILES | LD50 at 336 h [1] | products found to have a phototoxic or photoallergic effect (guinea-pig) | MBC [2] | MBC [3] | MBC [4] | products found to have a sensibilizing effect (guinea-pig skin [5]) | MBC [6] | MBC [7] | products found to have a bad tolerance (guinea-pig skin [8]) | MFC (Candida parakruzei 3918) | MFC (Candida tropicalis 3834) | MFC [9] | MFC [10] | effect on the cellular division of the lymphoma cells (lymphoma cells of mice)
CN(C)CCC(CO)c1cccc2ccccc12 (centres unmarked) [SR 42 643 A] | 400 mg/kg | None | 5000 mg/L (≈ 20500 µM) | 1000 mg/L (≈ 4110 µM) | 5000 mg/L (≈ 20500 µM) | None | 2000 mg/L (≈ 8220 µM) | 1000 mg/L (≈ 4110 µM) | None | – | – | – | – | –
CC1CCN(CCCCCCC(CO)c2cccc3ccccc23)CC1 (centres unmarked) [SR 43 293 A] | ≤ 250 mg/kg | None | 200 mg/L (≈ 566 µM) | 200 mg/L (≈ 566 µM) | 200 mg/L (≈ 566 µM) | None | 200 mg/L (≈ 566 µM) | 200 mg/L (≈ 566 µM) | None | 500 mg/L (≈ 1410 µM) | 200 mg/L (≈ 566 µM) | 1000 mg/L (≈ 2830 µM) | 500 mg/L (≈ 1410 µM) | –
OCC(CCN1CCC(Cc2ccccc2)CC1)c1cccc2ccccc12 (centres unmarked) [SR 43 383 A] | 1180 mg/kg | None | 100 mg/L (≈ 268 µM) | 100 mg/L (≈ 268 µM) | 100 mg/L (≈ 268 µM) | None | 100 mg/L (≈ 268 µM) | 100 mg/L (≈ 268 µM) | None | 100 mg/L (≈ 268 µM) | 100 mg/L (≈ 268 µM) | 500 mg/L (≈ 1340 µM) | 100 mg/L (≈ 268 µM) | –
OCCc1ccc2ccccc2c1 [2-naphtyl ethanol] | – | – | – | – | – | – | – | – | – | – | – | – | – | inhibits the cellular division of the lymphoma cells of mice
Cl.OCC(CCCCCCN1CCCCC1)c1cccc2ccccc12 (centres unmarked) [SR 43 157 A, 8-piperidino-2-(1-naphthyl)-octanol hydrochloride] | – | None | 200 mg/L | 200 mg/L | 200 mg/L | None | 200 mg/L | 100 mg/L | None | 300 mg/L | 300 mg/L | 1000 mg/L | 300 mg/L | –
CC(C)N(CCC(CO)c1cccc2ccccc12)Cc1ccccc1 (centres unmarked) [SR 43 292 A] | 500 to 750 mg/kg | None | 300 mg/L (≈ 863 µM) | 300 mg/L (≈ 863 µM) | 300 mg/L (≈ 863 µM) | None | 300 mg/L (≈ 863 µM) | 300 mg/L (≈ 863 µM) | None | 1000 mg/L (≈ 2880 µM) | 1000 mg/L (≈ 2880 µM) | 2000 mg/L (≈ 5760 µM) | 1000 mg/L (≈ 2880 µM) | –
OCC(CCN1CCCCCC1)c1ccc2ccccc2c1 (centres unmarked) [SR 43 270 A] | – | None | 1000 mg/L (≈ 3360 µM) | 1000 mg/L (≈ 3360 µM) | 1000 mg/L (≈ 3360 µM) | None | 2000 mg/L (≈ 6720 µM) | 1000 mg/L (≈ 3360 µM) | None | 1000 mg/L (≈ 3360 µM) | 1000 mg/L (≈ 3360 µM) | 5000 mg/L (≈ 16800 µM) | 500 mg/L (≈ 1680 µM) | –
OCC(CCN1CCCCC1)c1cccc2ccccc12 (centres unmarked) [SR 43 077 A] | 300 to 400 mg/kg | None | 600 mg/L (≈ 2120 µM) | 600 mg/L (≈ 2120 µM) | 600 mg/L (≈ 2120 µM) | None | 600 mg/L (≈ 2120 µM) | 800 mg/L (≈ 2820 µM) | None | 1000 mg/L (≈ 3530 µM) | 1000 mg/L (≈ 3530 µM) | 5000 mg/L (≈ 17600 µM) | 1000 mg/L (≈ 3530 µM) | –
CN(C)CCCCCCC(CO)c1cccc2ccccc12 (centres unmarked) [SR 43 727 A] | 580 mg/kg | None | 20 mg/L (≈ 66.8 µM) | 200 mg/L (≈ 668 µM) | 50 mg/L (≈ 167 µM) | None | 20 mg/L (≈ 66.8 µM) | 50 mg/L (≈ 167 µM) | None | – | – | – | – | –
